From PubChem BioAssay AID179 (DTP/NCI, 2004)
The source made the active and inactive calls.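 Rule for the calls: active = compounds giving half or more protection of infected cells from virus-caused growth loss, again on retest; inactive = the rest.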

System: CEM cells HIV-1 protection, formazan growth assay
Test: NCI AIDS Antiviral Assay
Details: for IC50: measured here: growth of uninfected CEM cells
Method in brief: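 CEM (human) cells, HIV-1 infected vs uninfected, 5-point dosing, formazan growth read-out. Retest threshold 50% protection.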

Row | Structure (SMILES) | outcome | EC50 | IC50
1 | Cc1ccc(Oc2ccc([N+](=O)[O-])cc2[N+](=O)[O-])c(C)c1 | inactive |  | 
2 | CC(=O)Nc1ccc2[nH]c(C(=O)N3CC(CCl)c4c3cc(N)c3ccccc43)cc2c1 (stereo not given) |  | > 0.2 µM | 0.00933 µM
3 | Cc1noc(NS(=O)(=O)c2ccc(Nc3nc(CC(=O)Nc4ccccc4)cs3)cc2)c1C |  | > 200 µM | 28.2 µM
4 | C(#CCN1CCCC1)CCCN1CCCC1 |  | > 200 µM | > 200 µM
5 | Cc1ccc2oc(=O)c3c(O)c4cccc(OC5OC(C)C6O[C@@H](c7ccccc7)OC6C5OC5OC(C)C(O)C(O)C5O)c4c4oc(=O)c1c2c34 (stereo not given in full) |  | > 7.24 µM | 0.0324 µM
6 | CC(NC(=O)c1ccccc1)C(=O)N(Cc1ccccc1)Cc1ccccc1 (stereo not given) |  | > 97.7 µM | > 97.7 µM
7 | CC(C)=CCC/C(C)=C/CCC(C(=O)COCc1ccccc1)P1(=O)OC(C)(C)CN1C(C)(C)C (stereo not given) |  | > 200 µM | 61.7 µM
8 | N#CC(C#N)=Cc1cccc(C#N)c1 |  | > 141 µM | 2.45 µM
9 | N#C/C(=C\c1cccs1)c1ccccc1 |  | > 200 µM | 117 µM
10 | CCNC(CCCC(NCC)P(=O)(O)O)P(=O)(O)O (stereo not given) | inactive |  | 
11 | CSc1cc(-c2ccccc2)s[s+]1 (tested in a mixture with another compound) |  | > 200 µM | 35.5 µM
12 | COc1cc(C2SC(N)=Nc3c2c(C)nn3C(=O)c2ccccc2O)ccc1O (stereo not given) |  | > 2 µM | 0.0977 µM
13 | COc1ccc(NC(=O)/C(=N/NC(N)=S)C2C(=O)NC(=S)NC2=O)c(OC)c1 |  | > 589 µM | > 589 µM
14 | COc1ccc(-c2c(C#N)c(NC(=S)NC(=O)c3ccccc3)nc3c2CCCC3)cc1OC |  | > 200 µM | 115 µM
15 | O=C1/C(=C/c2ccc(Cl)cc2)CCCc2ccccc21 |  | > 200 µM | 22.9 µM
16 | CCN(CC)CC1CCCCN1CC(=O)N1c2ccccc2C(=O)Nc2cccnc21 (stereo not given) |  | > 200 µM | 32.4 µM
17 | COC(=O)/C=C/C=C/c1ccc2c(c1OC)C(=O)c1ccccc1C2=O | inactive |  | 
18 | Clc1cccc(Cl)c1Nc1ccccc1Cc1nc2ccccc2[nH]1 |  | > 200 µM | 75.9 µM
19 | CCOC(=O)c1c(-c2[nH]c(C(=O)OCc3ccccc3)c(C)c2C(=O)OCC)[nH]c(C(=O)OCc2ccccc2)c1C | inactive |  | 
20 | CCOC(=O)/C(C#N)=C1/C(O)=C(C(=O)OC)C(C(=O)OC)=C1C(=O)OC | inactive |  | 
21 | Cc1ccsc1/C=N/Nc1cc(C)c2cccc(C)c2n1 |  | > 200 µM | 138 µM
22 | NCCC(O)C(=O)NC1CC(N)C(OC2OC(CN)C(O)C(O)C2O)C(O)C1OC1OC(CO)C(O)C(N)C1O (stereo not given) | inactive |  | 

Row | Structure (SMILES) | outcome | EC50 | IC50
23 | Cn1c([N+](=O)[O-])cnc1N1CCN(c2nncs2)C1=O |  | > 200 µM | > 200 µM
24 | O=C1/C(=C/c2cc(O)c(O)c(O)c2)Oc2cc(O)cc(OC3OC(CO)C(O)C(O)C3O)c21 (stereo not given) | inactive |  | 
25 | O=C1CN(c2cccc(C(F)(F)F)c2)C(=O)CN1CCN1CC(=O)N(c2cccc(C(F)(F)F)c2)CC1=O |  | > 200 µM | > 200 µM
26 | CN(C)C(C(N)=O)c1ccccc1 (stereo not given) |  | > 200 µM | > 200 µM
27 | COc1ccc(NC(=O)CC(=O)N/N=C(\C)c2cc3ccccc3oc2=O)cc1 |  | > 200 µM | 102 µM
28 | O=S1(=O)OCCOS(=O)(=O)C1I |  | > 759 µM | 132 µM
29 | Clc1cc(Cl)c2c(Cl)cc(Cl)c3c2c1N=S=N3 | inactive |  | 
30 | Cc1ccc(S(=O)(=O)SSSSS(=O)(=O)c2ccc(C)cc2)cc1 |  | > 30.9 µM | > 30.9 µM
31 | O=C(O)CCC(=O)c1ccc2c(c1)C(C(=O)O)CC2 (stereo not given) |  | > 200 µM | > 200 µM
32 | CCCCCCCCC1C(C)c2c([nH]c3ccccc23)C2C(=O)N(c3ccccc3)C(=O)C21 (stereo not given) | inactive |  | 
33 | [N-]=[N+]=NC1(c2ccccc2)C(=O)c2cccc3c4ccccc4n(c23)C1=O (stereo not given) |  | > 200 µM | > 200 µM
34 | Cc1ccc2nc(CN3CCCCC3)cc(=O)n2c1 |  | > 151 µM | > 151 µM
35 | CC(=O)CSc1sc(C(C)=O)c(N)c1C#N |  | > 200 µM | > 200 µM
36 | O=C(CCCn1ccnc1[N+](=O)[O-])NCCn1cncc1[N+](=O)[O-] |  | > 200 µM | > 200 µM
37 | O=C(/C=C/c1ccc(O)c(O)c1)O[C@H]1CCCC[C@@H]1OC(=O)/C=C/c1ccc(O)c(O)c1 |  | > 100 µM | 5.75 µM
38 | O=C1NC(=O)C(CN2C(=O)/C(=C/c3cccc(O)c3)SC2=S)C(=O)N1 |  | > 200 µM | 91.2 µM
39 | CC1=Nn2c(nnc2-c2cccc(N)c2)NC(C)(C)C1 |  | > 468 µM | > 468 µM
40 | Cc1ccc2nc(NC(=O)C(=O)C(C#N)c3ccc(Cl)cc3)sc2c1 (stereo not given) |  | > 49 µM | > 49 µM
41 | O=c1[nH]c2c(O)cccc2c2cc3c(c(O)c12)OCO3 | inactive |  | 
42 | CCOC(=O)C(NC(=O)CC)(Nc1ccccc1OC)C(F)(F)F (stereo not given) |  | > 200 µM | > 200 µM
43 | COc1cc(/C=N/c2nncs2)ccc1O |  | > 79.4 µM | > 79.4 µM
44 | Nc1nc(N)c(C2=CCN(Cc3ccccc3)CC2)c(=O)[nH]1 |  | > 200 µM | > 200 µM

Row | Structure (SMILES) | outcome | EC50 | IC50
45 | COc1cc2c(cc1O)C1C(O2)c2ccc(OCc3ccccc3)cc2OC1(C)C (stereo not given) |  | > 200 µM | 15.1 µM
46 | C=CCOCn1cnc2c(=O)[nH]c(N)nc21 |  | > 200 µM | > 200 µM
47 | CC1(C)Oc2ccc3c4c(c(=O)oc3c2[C@@H](OC(=O)C23CCC(C)(C(=O)O2)C3(C)C)[C@H]1OC(=O)C12CCC(C)(C(=O)O1)C2(C)C)CCCC4 (stereo not given in full) |  | 0.813 µM | 12 µM
48 | CC1=CCC23C(C1)OC(Br)(C=CC2(C)O)C3(C)C (stereo not given) | inactive |  | 
49 | CSc1ncnc2c1ncn2CCC#N |  | > 200 µM | > 200 µM
50 | O=C(Oc1ccccc1)C(c1ccccc1)c1ccccc1 |  | > 102 µM | > 102 µM
51 | O=C(N=c1ccc2nc(=O)[nH]n(O)c-2c1)C(F)(F)F |  | > 200 µM | 186 µM
52 | Nc1c(N=Nc2ccc(/C=C/c3ccc(N=Nc4cc(S(=O)(=O)O)c5cccnc5c4N)cc3S(=O)(=O)O)c(S(=O)(=O)O)c2)cc(S(=O)(=O)O)c2cccnc12 |  | > 4.68 µM | > 4.68 µM
53 | O=C(O)C[C@@H]1[C@@H](O)[C@@H](O)CN2C(=O)c3ccccc3[C@H]12 |  | > 200 µM | > 200 µM
54 | c1ccc2c3c([nH]c2c1)[C@@H]1CCN2CCC[C@@H]2N1CC3 |  | > 200 µM | 97.7 µM
55 | COc1ccccc1C(=O)Nc1ccc(Cl)c(C(=O)OC(C)C)c1 | active |  | 
56 | NC(=O)N/N=C1/CCN2CCCc3cccc1c32 |  | > 200 µM | > 200 µM
57 | Cc1cc(S(=O)(=O)Nc2nc(N)nc(N3N=CCC3C)n2)c(S)cc1Cl (stereo not given) |  | 55 µM | > 200 µM
58 | O=C(Nc1ccccc1)c1cc(S(=O)(=O)N2CCNNC2=O)c(S)cc1Cl |  | 10.2 µM | 166 µM
59 | Cn1c2c(c3ccccc31)CCN(CCCCN1CCCCC1)C2=O |  | > 372 µM | 58.9 µM
60 | COc1cc2c3cc1Oc1c(OC)c(OC)cc4c1C(Cc1ccc(cc1)Oc1cc(ccc1O)CC3N(C)CC2)N(C)CC4 (stereo not given) | inactive | > 22.4 µM | > 22.4 µM
61 | C[C@H]1[C@@H](c2ccccc2)C12C(=O)NC(=O)NC2=O |  | > 200 µM | 105 µM
62 | O=C1CCC(c2ccccc2)(C2CCN(Cc3ccc(F)cc3)CC2)C(=O)N1 (stereo not given) |  | > 200 µM | 123 µM
63 | CCOCCOCCOCOCCOCCOCC |  | > 200 µM | > 200 µM
64 | c1cc2nnc1SCCSCCCSCCS2 |  | > 200 µM | 182 µM
65 | CC(=O)[O-].O=S(=O)(Nc1ncccn1)c1ccc(N=Cc2ccccc2O)cc1.O=S(=O)(Nc1ncccn1)c1ccc(N=Cc2ccccc2O)cc1.[Co+2] |  | > 200 µM | 39.8 µM
66 | [N-]=[N+]=C1C(=O)NC(=O)N2C3OC(CO[C@@H]12)C(O)C3O (stereo not given in full) |  | > 200 µM | > 200 µM

Row | Structure (SMILES) | outcome | EC50 | IC50
67 | CCOC(=O)C(C/C(C)=C/c1ccccc1)C(=O)OCC |  | > 200 µM | 182 µM
68 | Cc1cc(C2CC(O)C(CO)O2)c(F)cc1F (stereo not given) |  | > 200 µM | > 200 µM
69 | O=C(CCN1CCN(c2ccccc2)CC1)N1CCc2c([nH]c3ccccc23)C1c1cccnc1 (stereo not given) |  | > 15.5 µM | > 15.5 µM
70 | CC(NC1CC1)c1ccccc1 (stereo not given) | inactive |  | 
71 | O=C1OC(=O)c2cc(S(=O)(=O)c3ccc4c(c3)C(=O)OC4=O)ccc21 |  | > 200 µM | > 200 µM
72 | CN(C)c1ccc(/C=C(\C#N)c2ccc(F)cc2F)cc1 |  | > 200 µM | 1.2 µM
73 | COc1ccc(C23OC2Oc2cc(OC4CCCCO4)ccc2C3=O)cc1 (stereo not given) |  | > 70.8 µM | 45.7 µM
74 | NC1(C(=O)O)CCCC1c1ccccc1 (stereo not given) |  | > 6.61 µM | > 6.61 µM
75 | COc1ccc(/C=C2/C(=O)N(C(=O)c3ccccc3O)N=C2C)cc1OC |  | > 70.8 µM | 0.145 µM
76 | CCN(CC)CCCOP(=O)(OCCCN(CC)CC)OCCCN(CC)CC |  | 20 µM | > 200 µM
77 | C/C(CC(=O)Nc1ccc([N+](=O)[O-])cc1)=N\Nc1ccc([N+](=O)[O-])cc1[N+](=O)[O-] |  | > 24.5 µM | > 24.5 µM
78 | C=CCOC1=C(OC(C)=O)C(=O)OC1C1COC(C)(C)O1 (stereo not given) |  | > 200 µM | 26.3 µM
79 | COc1c(C(=O)O)cccc1-c1cccc(C(=O)NCCN(CCNC(=O)c2cccc(-c3cccc(C(=O)O)c3OC)c2OC)CCNC(=O)c2cccc(-c3cccc(C(=O)O)c3OC)c2OC)c1OC |  | > 200 µM | > 200 µM
80 | O=Cc1ccccc1OCCC[P+](c1ccccc1)(c1ccccc1)c1ccccc1 |  | > 200 µM | 2.51 µM
81 | CCOc1ccccc1NC(=O)CCC(=O)NN |  | > 145 µM | > 145 µM
82 | CN(C)C1C(=O)C(C(=O)NCNC(CCS(C)=O)C(=O)O)=C(O)C2(O)C(=O)C3=C(O)c4c(O)cccc4C(C)(O)C3CC12 (stereo not given) |  | > 204 µM | > 100 µM
83 | CCOc1ccc2c(C)cc(=O)oc2c1 |  | > 66.1 µM | > 66.1 µM
84 | CC(=O)OCC1OC(n2c(C)c(C)cc(C#N)c2=S)C(OC(C)=O)C(OC(C)=O)C1OC(C)=O (stereo not given) |  | > 200 µM | > 200 µM
85 | O=C(C(=Cc1ccccc1)C(=O)c1ccccc1)c1ccccc1 |  | > 43.7 µM | 14.5 µM
86 | O=C(CC(C(=O)c1cccs1)c1ccccc1)c1ccccc1O (stereo not given) |  | > 200 µM | 115 µM
